# US20090233888A1, “TREATMENT OF DISEASE CONDITIONS THROUGH MODULATION OF HYDROGEN SULFIDE PRODUCED BY SMALL INTESTINAL BACTERIAL OVERGROWTH” (priority 2005, published 2009)
# What was measured:
# [1] = 100 patients, mild to moderate AD, doxycycline and rifampin together; cited from earlier work
# [2] = rat model of HPS, chronic bile duct ligation; cited from earlier work
# [3] = single patient with HPS, enhanced oxygenation; cited from earlier work
# gut bacteria = settings: Norfloxacin treatment; cited from earlier work
# [4] = system: intestinal transit across the proximal gut; experiment: Intestinal transit in dogs with duodenal and midgut fistulas; assay type: in vivo; settings: last 30 min of 90-min perfusion, mean±SE, buffer control 53.77±5.96%
# Experimental: The inventor determined the effect of hydrogen sulfide on intestinal transit. Five dogs were equipped with duodenal and midgut fistulas. With occluding Foley catheters in the distal limb of the 2 fistulas, the small intestine was compartmentalized into the proximal and distal ½ of the gut. The proximal gut was perfused with pH 7.0 phosphate buffer with 0 or 1 mM NaHS (a donor of H2S) at 2 ml/min while the distal gut was perfused with pH 7.0 phosphate buffer with 0 or 60 mM oleate at 2 ml/min for 90 minutes. 60 mM oleate was used to trigger the ileal brake response to slow intestinal transit. Intestinal transit across the proximal gut was measured by the cumulative % recovery of a radioactive marker out of the midgut fistula during the last 30 min of the 90-min perfusion (data=mean±SE).
# [5] = inhaled; cited from earlier work
# SIBO = settings: about 400 mg TID for about 10 days; cited from earlier work
structure (smiles),measurement,setting,value
CO[C@H]1/C=C/O[C@@]2(C)Oc3c(C)c(O)c4c(O)c(c(/C=N/N5CCN(C)CC5)c(O)c4c3C2=O)NC(=O)/C(C)=C\C=C\[C@H](C)[C@H](O)[C@@H](C)[C@@H](O)[C@@H](C)[C@H](OC(C)=O)[C@@H]1C [rifampin],cognitive worsening,[1],reduce cognitive worsening
"COC(=O)[C@@H](N)CCCNC(=N)N[N+](=O)[O-] [L-NAME, nomega-nitro-L-arginine methylester]",hypoxia,[2],improved but did not correct hypoxia
same,extra walking distance,[3],92 M
CCn1cc(C(=O)O)c(=O)c2cc(F)c(N3CCNCC3)cc21 [Norfloxacin],iNOS expression,gut bacteria,normalized
same,"severity of intrapulmonary vascular dilatation, reduction",gut bacteria,about ½
S [Hydrogen sulfide],Intestinal transit: cumulative % recovery of a radioactive marker out of the midgut fistula,[4]; H2S perfused in distal compartment,60.72±8.97%
same,Intestinal transit: cumulative % recovery of a radioactive marker out of the midgut fistula,"[4]; H2S perfused in proximal compartment (1 mM NaHS, pH 7.0 phosphate buffer, 2 ml/min)",37.78±3.80%
same,level that can be fatal (respiratory failure and pulmonary edema),[5],> 600 ppm
"CCCCCCCC/C=C\CCCCCCCC(=O)O [fat, oleate]",Intestinal transit: cumulative % recovery of a radioactive marker out of the midgut fistula,"[4]; fat (60 mM oleate) in distal 1/2 of gut, ileal brake",16.00±3.92%
CO[C@H]1/C=C/O[C@@]2(C)Oc3c(C)c(O)c4c(O)c(c5c(nc6cc(C)ccn65)c4c3C2=O)NC(=O)/C(C)=C\C=C\[C@H](C)[C@H](O)[C@@H](C)[C@@H](O)[C@@H](C)[C@H](OC(C)=O)[C@@H]1C [rifaximin],efficacy in achieving successful partial eradication of SIBO,SIBO,60-70%
